What was measured:
Type in all cases: cell-based, human
T-iPS-T cells = assay: Comparison with PBMC feeder: proliferation of T-iPS-T cells; conditions: 1 μM added to CD3/CD28 Dynabeads vs PBMC feeder, FIG. 10
Protocol: By using T-iPS-T cells, a proliferation promoting effect was compared by culturing the cells using the following three methods: the same stimulation method as in Example 2 using PBMC feeder, the same stimulation method as in Example 4 using CD3/CD28 Dynabeads, and the same stimulation method as in Example 4 in which berbamine (SIGMA, 547190) at 1 μM was added to CD3/CD28 Dynabeads. The PBMC feeder cells were labeled using CellTrace CFSE Cell Proliferation Kit for Flow Cytometry (CFSE, Invitrogen, 100 nM) in order to discriminate them from T-iPS-T cells, and then, a radiation irradiation treatment was performed.
From the above results, it can be said that the present invention can substitute PBMCs which have been conventionally used for the proliferation of T cells.

[1] = test system: regulatory T cells (Treg); assay: Proliferation of regulatory T cells (number of FoxP3-positive cells); conditions: 1 μM, 6 days, CD3 T cells of 3 healthy donors, FIG. 17
Protocol: The usefulness of berbamine (BBM) in the proliferation of regulatory T cells (Treg) was verified. As a method therefor, CD3 T cells were purified from PBMCs (CTL, Inc.) derived from 3 healthy donor subjects in the same manner as in additional Example 6 and cultured for 6 days. After culturing for 6 days, the number of viable cells was counted by a trypan blue method and the ratio of CD25(+)FoxP3(+) cells was analyzed by FACS.
In the FACS, the cultured cells were sorted into facs tubes, washed with a staining solution (PBS containing 2% FBS), and then stained with CD3-APC (BioLegend, 300421), CD4-BV510 (BioLegend, 317444), CD8-Pacific Blue (BD 558207), and CD25-FITC (BioLegend, 302604).
After the cells were further washed, intracellular staining was performed using FoxP3/Transcription Factor Staining Buffer Set (eBioscience, 00-5523) and FoxP3-PE (eBioscience, 12-4776-41), and measurement was performed using a BD LSRFortessa cytometer (BD Bioscience).
The value obtained by multiplying the positive rate of FoxP3(+) cells in the CD4(+) cells analyzed by FlowJo 9 by the number of viable cells was defined as the number of FoxP3-positive cells.

[2] = test system: CD8beta(+)CD8alpha(+) T cells; assay: Long-term culturing of T cells obtained by feeder-free differentiation induction, trypan blue count; conditions: 1 μM, FIG. 14(B)
Protocol: The possibility of long-term culturing of T-iPS-T cells using berbamine was evaluated. First, T cells were induced from T-iPS cells without using a feeder. For the maintenance of iPS cells, StemFit AK02N medium (Ajinomo) was used for feeder-free iPS cells. The iPS cells were detached from the culture surface coated with iMatrix-511 using a dissociation agent [1× TrypLE Select (Thermo Fisher Scientific) was diluted to 1/2 with PBS, and a 0.5 mol/L EDTA solution (pH 8, Nacalai Tesque) was added thereto to give a final concentration of 0.5× TrypLE Select and 0.75 mM EDTA], and subcultured in a culture medium obtained by adding 10 μM Y-27632 to StemFit AK02N (37° C., 5% CO2). On the following day, the culture medium was replaced with Stemfit AK02N. This operation was repeated once a week to maintain the iPS cells.
Hematopoietic progenitor cells (HPCs) were produced by inducing the differentiation of iPS cells by an embryoid body formation method. The feeder-free iPS cells were detached with 0.5× TrypLE Select, and 0.75 mM EDTA, and then seeded at 2 to 3×10^5 cells/well in a 6-well plate (CORNING) subjected to an ultra-low adhesion treatment. By using Stemfit AK02N medium supplemented with 10 μM Y-27632 (Nacalai Tesque) and 10 μM CHIR99021 (Tocris Bioscience), the cells were cultured under low oxygen conditions (5% 02) (Day 0). […]

COc1cc2c3cc1Oc1c(OC)c(OC)cc4c1[C@@H](Cc1ccc(O)c(c1)Oc1ccc(cc1)C[C@@H]3N(C)CC2)N(C)CC4 [berbamine]
number of undifferentiated cells compared with the presence of feeder cells (T-iPS-T cells): comparable results | number of viable cells compared with the presence of feeder cells (T-iPS-T cells): significant increase in the number of viable cells | number of FoxP3-positive cells compared with MilliQ water [1]: increase in the number of FoxP3-positive cells | period for which the cells could be cultured ([2]; restimulated on day 14, 28, 42, MilliQ water control could not be cultured after day 42): 56 days | proliferation of the cells in long-term culturing ([2]; vs MilliQ water): enhancement of the proliferation of T-iPS-T cells
